Values after ≈ are worked out from the molar mass of the structure shown. Active and inactive are the calls of the source. The calls are words filed in the database; no cut-off is given here.
Key:
[1] = target: T1, Receptor tyrosine-protein kinase erbB-2 (Homo sapiens, UniProt P04626); assay: Inhibition of C-terminal His6-tagged HER2 (703 to 1029 residues) (unknown origin) expressed in Sf9 insect cells using TK as substrate preincubated for 30 mins followed by substrate addition and measured after 60 mins in presence of XL665-labeled streptavidin by HTRF assay
T1 sequence (P04626 whole entry, the tested form may be a part): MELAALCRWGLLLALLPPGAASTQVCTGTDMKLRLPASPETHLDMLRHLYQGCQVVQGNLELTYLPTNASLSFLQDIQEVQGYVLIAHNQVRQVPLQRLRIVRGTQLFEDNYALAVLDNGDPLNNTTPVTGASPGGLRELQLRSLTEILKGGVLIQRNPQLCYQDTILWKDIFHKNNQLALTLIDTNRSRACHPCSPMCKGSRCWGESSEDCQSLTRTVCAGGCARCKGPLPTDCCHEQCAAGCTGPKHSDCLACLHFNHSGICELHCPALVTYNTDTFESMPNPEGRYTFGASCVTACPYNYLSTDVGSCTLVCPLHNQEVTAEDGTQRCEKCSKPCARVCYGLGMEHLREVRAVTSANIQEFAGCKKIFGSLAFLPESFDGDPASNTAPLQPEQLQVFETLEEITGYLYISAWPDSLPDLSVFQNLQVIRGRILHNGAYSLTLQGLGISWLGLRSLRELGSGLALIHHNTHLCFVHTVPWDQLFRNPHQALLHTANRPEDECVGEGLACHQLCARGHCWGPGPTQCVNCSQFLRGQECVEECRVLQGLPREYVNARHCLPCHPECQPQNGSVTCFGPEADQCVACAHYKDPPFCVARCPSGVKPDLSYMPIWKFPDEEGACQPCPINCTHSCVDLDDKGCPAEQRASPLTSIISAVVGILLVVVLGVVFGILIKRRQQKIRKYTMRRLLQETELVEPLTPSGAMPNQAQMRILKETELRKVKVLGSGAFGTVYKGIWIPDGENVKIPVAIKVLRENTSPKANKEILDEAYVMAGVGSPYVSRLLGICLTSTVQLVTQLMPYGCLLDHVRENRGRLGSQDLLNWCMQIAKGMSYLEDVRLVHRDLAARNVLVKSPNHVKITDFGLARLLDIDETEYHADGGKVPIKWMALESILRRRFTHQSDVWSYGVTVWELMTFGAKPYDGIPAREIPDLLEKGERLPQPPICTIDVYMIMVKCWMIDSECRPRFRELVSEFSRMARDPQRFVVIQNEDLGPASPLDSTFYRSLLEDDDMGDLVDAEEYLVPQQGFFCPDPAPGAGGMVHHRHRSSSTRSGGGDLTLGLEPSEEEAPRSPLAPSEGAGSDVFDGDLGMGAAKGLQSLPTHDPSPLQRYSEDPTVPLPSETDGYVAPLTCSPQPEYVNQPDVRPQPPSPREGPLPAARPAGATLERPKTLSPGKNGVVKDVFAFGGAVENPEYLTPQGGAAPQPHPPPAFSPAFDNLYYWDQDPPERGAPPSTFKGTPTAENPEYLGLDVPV

[2] = Stability of compound in human plasma assessed as parent compound remaining at 5 uM measured for 1 hr by LC-MS analysis; format: ADME, cell-free; conditions: read-out: Stabilty
Homo sapiens [3] = organism: Homo sapiens; assay: Inhibition of MAPK phosphorylation at T202/204 residues in human H1781 cells after 1 hrs by Western blot analysis; format: cell-based; conditions: dose nM 10-500, time 1.0 hrs
[4] = Intrinsic clearance in mouse liver microsomes at 3 uM measured up to 60 mins by LC-MS analysis; format: ADME, Microsome; conditions: read-out: CLH
[5] = target: Serine/threonine-protein kinase AKT (Homo sapiens) (UniProt P31751+Q9Y243+P31749); assay: Inhibition of AKT phosphorylation at S473 residues in human H1781 cells after 1 hrs by Western blot analysis; format: cell-based; conditions: dose nM 10-500, time 1.0 hrs
Chain of Serine/threonine-protein kinase AKT (Homo sapiens) (P31749 whole entry, looked up): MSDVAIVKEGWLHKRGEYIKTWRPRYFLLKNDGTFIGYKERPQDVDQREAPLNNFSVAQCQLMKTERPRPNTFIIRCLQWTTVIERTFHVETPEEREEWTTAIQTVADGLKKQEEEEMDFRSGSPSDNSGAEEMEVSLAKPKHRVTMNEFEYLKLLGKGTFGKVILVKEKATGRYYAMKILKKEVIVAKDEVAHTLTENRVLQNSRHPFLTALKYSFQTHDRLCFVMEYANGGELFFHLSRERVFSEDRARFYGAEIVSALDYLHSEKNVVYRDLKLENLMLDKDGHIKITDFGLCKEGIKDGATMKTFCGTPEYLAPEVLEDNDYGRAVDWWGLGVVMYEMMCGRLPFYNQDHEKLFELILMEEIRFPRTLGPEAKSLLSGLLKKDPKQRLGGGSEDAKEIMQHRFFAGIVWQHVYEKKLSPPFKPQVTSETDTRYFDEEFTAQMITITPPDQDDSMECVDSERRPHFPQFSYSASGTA
Chain of Serine/threonine-protein kinase AKT (Homo sapiens) (P31751 whole entry, looked up): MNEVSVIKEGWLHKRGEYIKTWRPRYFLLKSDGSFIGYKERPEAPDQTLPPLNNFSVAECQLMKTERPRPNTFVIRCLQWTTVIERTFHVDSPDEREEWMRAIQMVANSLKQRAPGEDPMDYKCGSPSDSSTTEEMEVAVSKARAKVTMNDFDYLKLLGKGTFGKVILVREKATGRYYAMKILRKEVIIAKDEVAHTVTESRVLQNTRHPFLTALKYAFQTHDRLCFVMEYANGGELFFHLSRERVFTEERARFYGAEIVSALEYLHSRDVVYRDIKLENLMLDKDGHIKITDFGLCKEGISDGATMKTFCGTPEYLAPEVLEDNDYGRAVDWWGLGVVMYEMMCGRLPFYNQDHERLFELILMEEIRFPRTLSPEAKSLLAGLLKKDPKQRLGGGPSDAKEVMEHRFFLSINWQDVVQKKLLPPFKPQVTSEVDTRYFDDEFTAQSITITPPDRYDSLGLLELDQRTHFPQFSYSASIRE
Chain of Serine/threonine-protein kinase AKT (Homo sapiens) (Q9Y243 whole entry, looked up): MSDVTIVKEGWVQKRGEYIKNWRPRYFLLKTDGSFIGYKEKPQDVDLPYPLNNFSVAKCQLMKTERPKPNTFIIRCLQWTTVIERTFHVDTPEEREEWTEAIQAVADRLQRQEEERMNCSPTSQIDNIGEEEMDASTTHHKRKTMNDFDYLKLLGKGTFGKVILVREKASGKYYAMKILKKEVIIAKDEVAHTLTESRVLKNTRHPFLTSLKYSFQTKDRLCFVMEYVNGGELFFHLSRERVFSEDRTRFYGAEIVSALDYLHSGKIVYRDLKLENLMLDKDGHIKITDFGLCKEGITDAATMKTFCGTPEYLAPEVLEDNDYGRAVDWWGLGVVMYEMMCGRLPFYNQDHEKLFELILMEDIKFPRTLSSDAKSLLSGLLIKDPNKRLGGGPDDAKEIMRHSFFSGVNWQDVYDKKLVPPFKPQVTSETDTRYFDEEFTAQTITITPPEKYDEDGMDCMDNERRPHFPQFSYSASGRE

[6] = Apparent permeability across apical side to basolateral side in human Caco-2 cells at 5 uM after 2 hrs by transwell assay; format: ADME, cell-based; conditions: read-out: permeability
[7] = Apparent permeability across basolateral side to apical side in human Caco-2 cells at 5 uM after 2 hrs by transwell assay; format: ADME, cell-based; conditions: read-out: permeability
[8] = Inhibition of C-terminal His6-tagged HER2-A775_G776insYVMA mutant (703 to 1029 residues) (unknown origin) expressed in Sf9 insect cells assessed as Kinact using TK as substrate measured up to 2 to 40 mins by fluorescence assay; conditions: Homo sapiens, time min 2-40
[9] = target: Epidermal growth factor receptor (Homo sapiens, UniProt P00533, L858R/T790M); assay: Inhibition of human N-terminal GST-tagged EGFR L858R/T790M mutant (669 to 1210 residues) expressed in baculovirus infected Sf9 insect cells using TK as substrate preincubated for 30 mins followed by substrate addition and measured after 20 mins by HTRF assay
[10] = target: T1, Receptor tyrosine-protein kinase erbB-2; assay: Inhibition of HER2 in human H1781 cells assessed as reduction in HER2 phosphorylation at Y1248 residues after 1 hrs by Western blot analysis; format: cell-based; conditions: dose nM 10-500, time 1.0 hrs
[11] = Inhibition of C-terminal His6-tagged HER2-A775_G776insYVMA mutant (703 to 1029 residues) (unknown origin) expressed in Sf9 insect cells using TK as substrate measured up to 2 to 40 mins by fluorescence assay; set-up: species or system Homo sapiens
[12] = Solubility of compound in aqueous buffer at pH 7.4 after 120 mins by turbidometric assay; format: physicochemical
Homo sapiens [13] = organism: Homo sapiens; assay: Inhibition of S6 phosphorylation at T202/204 residues in human H1781 cells after 1 hrs by Western blot analysis; format: cell-based; conditions: dose nM 10-500, time 1.0 hrs
[14] = Intrinsic clearance in human liver microsomes at 3 uM measured up to 50 mins by LC-MS analysis; format: ADME, Microsome; conditions: read-out: CLH
[15] = target: Epidermal growth factor receptor (Homo sapiens, UniProt P00533, L858R); assay: Inhibition of human N-terminal GST-tagged EGFR L858R mutant (669 to 1210 residues) expressed in baculovirus infected Sf9 insect cells using TK as substrate preincubated for 30 mins followed by substrate addition and measured after 15 mins by HTRF assay
Chain of Epidermal growth factor receptor (Homo sapiens, UniProt P00533, L858R) (P00533 25-1210 L858R limits assumed): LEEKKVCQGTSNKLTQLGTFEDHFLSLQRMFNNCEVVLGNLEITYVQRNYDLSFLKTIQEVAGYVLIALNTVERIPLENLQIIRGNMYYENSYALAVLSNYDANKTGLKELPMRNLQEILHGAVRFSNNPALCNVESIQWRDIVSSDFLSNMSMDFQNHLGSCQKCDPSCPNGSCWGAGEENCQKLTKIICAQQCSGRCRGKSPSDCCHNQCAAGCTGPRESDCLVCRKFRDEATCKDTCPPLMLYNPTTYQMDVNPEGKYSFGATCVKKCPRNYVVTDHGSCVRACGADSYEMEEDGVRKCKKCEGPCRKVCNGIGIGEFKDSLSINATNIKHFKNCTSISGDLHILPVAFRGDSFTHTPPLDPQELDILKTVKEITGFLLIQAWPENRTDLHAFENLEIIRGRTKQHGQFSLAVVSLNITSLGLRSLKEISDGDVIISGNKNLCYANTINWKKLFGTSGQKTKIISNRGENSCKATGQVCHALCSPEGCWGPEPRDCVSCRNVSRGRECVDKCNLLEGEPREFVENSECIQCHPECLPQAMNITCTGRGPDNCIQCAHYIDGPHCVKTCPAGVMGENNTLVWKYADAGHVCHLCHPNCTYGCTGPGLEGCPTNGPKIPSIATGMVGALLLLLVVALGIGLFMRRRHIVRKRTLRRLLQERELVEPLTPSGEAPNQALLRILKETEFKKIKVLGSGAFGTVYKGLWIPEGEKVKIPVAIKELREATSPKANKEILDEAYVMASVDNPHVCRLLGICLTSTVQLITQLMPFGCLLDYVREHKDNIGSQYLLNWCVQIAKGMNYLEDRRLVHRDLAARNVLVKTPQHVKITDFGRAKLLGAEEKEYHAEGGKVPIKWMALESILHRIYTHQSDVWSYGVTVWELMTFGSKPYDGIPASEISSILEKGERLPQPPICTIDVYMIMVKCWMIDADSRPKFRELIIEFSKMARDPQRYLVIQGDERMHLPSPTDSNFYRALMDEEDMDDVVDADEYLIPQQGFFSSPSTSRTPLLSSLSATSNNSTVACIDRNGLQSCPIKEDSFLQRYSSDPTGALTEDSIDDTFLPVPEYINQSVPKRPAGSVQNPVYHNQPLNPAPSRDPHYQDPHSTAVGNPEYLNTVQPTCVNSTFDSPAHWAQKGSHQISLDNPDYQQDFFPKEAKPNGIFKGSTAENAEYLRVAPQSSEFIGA

[16] = Inhibition of HER2-A775_G776insYVMA mutant (unknown origin) expressed in mouse BaF3 cells assessed as reduction in HER2 induced cell viability after 96 hrs by CellTiter-Glo assay; format: cell-based; conditions: BaF3, 96 h
[17] = Stability of compound in mouse plasma assessed as parent compound remaining at 5 uM measured for 1 hr by LC-MS analysis; format: ADME, cell-free; conditions: read-out: Stabilty
[18] = target: T1, Receptor tyrosine-protein kinase erbB-2; assay: Inhibition of HER2 in human H1781 cells assessed as reduction in HER2 phosphorylation at Y1221/1222 residues after 1 hrs by Western blot analysis; format: cell-based; conditions: dose nM 10-500, time 1.0 hrs
[19] = target: Epidermal growth factor receptor (Homo sapiens, UniProt P00533); assay: Inhibition of human N-terminal GST-tagged EGFR (669 to 1210 residues) expressed in baculovirus infected Sf9 insect cells using TK as substrate preincubated for 30 mins followed by substrate addition and measured after 25 mins by HTRF assay
Chain of Epidermal growth factor receptor (Homo sapiens, UniProt P00533) (P00533 whole entry, the tested form may be a part): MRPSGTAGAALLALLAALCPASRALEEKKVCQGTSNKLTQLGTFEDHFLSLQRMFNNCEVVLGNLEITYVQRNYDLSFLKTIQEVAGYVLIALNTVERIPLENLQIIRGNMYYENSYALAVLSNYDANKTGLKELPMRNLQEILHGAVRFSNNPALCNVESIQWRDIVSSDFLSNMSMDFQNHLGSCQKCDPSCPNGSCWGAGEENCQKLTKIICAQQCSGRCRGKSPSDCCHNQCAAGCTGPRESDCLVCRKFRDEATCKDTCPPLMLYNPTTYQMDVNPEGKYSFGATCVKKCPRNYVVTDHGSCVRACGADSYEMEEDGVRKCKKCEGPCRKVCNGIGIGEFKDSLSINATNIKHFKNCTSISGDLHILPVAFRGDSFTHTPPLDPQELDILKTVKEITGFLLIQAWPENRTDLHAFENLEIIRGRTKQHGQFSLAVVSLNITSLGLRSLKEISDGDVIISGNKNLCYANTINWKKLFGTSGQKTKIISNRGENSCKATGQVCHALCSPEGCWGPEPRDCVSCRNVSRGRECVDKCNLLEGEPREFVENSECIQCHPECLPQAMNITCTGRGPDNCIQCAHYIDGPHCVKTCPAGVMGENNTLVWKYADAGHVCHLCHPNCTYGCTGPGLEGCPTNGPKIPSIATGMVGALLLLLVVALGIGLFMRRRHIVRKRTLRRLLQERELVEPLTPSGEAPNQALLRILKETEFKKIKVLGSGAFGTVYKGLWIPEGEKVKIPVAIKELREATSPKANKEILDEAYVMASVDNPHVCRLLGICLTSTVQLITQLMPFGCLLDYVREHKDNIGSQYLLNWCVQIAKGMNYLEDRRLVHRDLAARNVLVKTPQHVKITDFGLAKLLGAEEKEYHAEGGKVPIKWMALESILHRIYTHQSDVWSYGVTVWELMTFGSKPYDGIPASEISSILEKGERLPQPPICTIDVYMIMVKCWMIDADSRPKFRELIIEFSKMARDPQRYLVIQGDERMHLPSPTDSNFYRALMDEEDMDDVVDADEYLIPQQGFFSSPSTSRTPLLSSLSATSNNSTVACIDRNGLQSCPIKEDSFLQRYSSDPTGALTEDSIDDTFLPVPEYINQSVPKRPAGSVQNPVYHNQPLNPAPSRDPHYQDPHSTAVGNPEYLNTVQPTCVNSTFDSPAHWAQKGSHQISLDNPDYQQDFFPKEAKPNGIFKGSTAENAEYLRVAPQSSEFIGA

cells = format: cell-based; conditions: Homo sapiens, NCI-H1781, 96 h
Description: Inhibition of HER2-G776delinsVC mutant (unknown origin) expressed in human H1781 cells assessed as reduction in HER2 induced cell viability after 96 hrs by CellTiter-Glo assay

[20] = Ratio of apparent permeability across basolateral to apical over apical to basolateral side in human Caco2 cells at 5 uM after 2 hrs by transwell assay; format: ADME, cell-based; conditions: Caco-2
[21] = Intrinsic clearance in mouse liver microsomes at 1 uM measured up to 60 mins by LC-MS analysis; format: ADME, Microsome; conditions: read-out: CLH
[22] = target: T1, Receptor tyrosine-protein kinase erbB-2; assay: Inhibition of HER2 in human H1781 cells assessed as reduction in HER2 phosphorylation at Y1221/1222 residues at 100 to 500 nM after 1 hrs by Western blot analysis; format: cell-based; conditions: dose nM 100-500, time 1.0 hrs
[23] = Intrinsic clearance in human liver microsomes at 1 uM measured up to 50 mins by LC-MS analysis; format: ADME, Microsome; conditions: read-out: CLH
[24] = target: T1, Receptor tyrosine-protein kinase erbB-2; assay: Inhibition of HER2 in human H1781 cells assessed as reduction in HER2 phosphorylation at Y1248 residues at 100 to 500 nM after 1 hrs by Western blot analysis; format: cell-based; conditions: dose nM 100-500, time 1.0 hrs
[25] = Kinetic solubility of compound in HEPES buffer a pH 7.4 at 500 uM after 90 mins; format: physicochemical; conditions: read-out: Kinetic_solubility

SMILES	IC50 [1]	remaining at 1 h, 5 µM [2]	inhibition (Homo sapiens [3])	inhibition [5]	Papp A→B at 2 h, 5 µM [6]	Papp B→A at 2 h, 5 µM [7]	Kinact [8]	IC50 [9]	inhibition [10]	Ki [11]	solubility kinetic at 2 h [12]	IC50 [15]	IC50 [16]	remaining at 1 h, 5 µM [17]	IC50 [19]	IC50 (cells)	efflux ratio at 2 h, 5 µM [20]	microsomal CLint at 1 µM [21]	microsomal CLint at 1 µM [23]	solubility kinetic at 1.5 h, 500 µM [25]	further results
C=CC(=O)Nc1cccc(-c2c[nH]c3ncnc(Nc4ccc(OCc5ccccn5)c(Cl)c4)c23)c1	11 nM	79.8%	Dose-dependent effect	Dose-dependent effect	19 nm/s	6 nm/s	0.136 min⁻¹	3.9 nM	Dose-dependent effect	54 nM	30 µM (≈ 14.9 µg/mL)	0.1 nM	83 nM	49%	0.08 nM	161 nM	0.3	–	–	–	microsomal CLint at 3 µM [4]: 125 µL/min/mg; inhibition (Homo sapiens [13]): Dose-dependent effect; microsomal CLint at 3 µM [14]: 27.7 µL/min/mg; inhibition [18]: Dose-dependent effect
C=CC(=O)Nc1cc(-c2c[nH]c3ncnc(Nc4ccc(OCc5ccccn5)c(Cl)c4)c23)ccc1OCCN(C)C	15 nM	74.4%	–	–	21 nm/s	239 nm/s	0.212 min⁻¹	2 nM	–	49 nM	100 µM (≈ 58.4 µg/mL)	0.1 nM	120 nM	0.8%	0.09 nM	164 nM	11.4	866 µL/min/mg	64.2 µL/min/mg	60.6 µM (≈ 35.4 µg/mL)	inhibition [22]: Active; inhibition [24]: Active
C=CC(=O)Nc1cccc(-c2c[nH]c3ncnc(Nc4ccc(CN5C(=O)c6ccccc6C5=O)cc4)c23)c1	11 nM	78.1%	Dose-dependent effect	Dose-dependent effect	5 nm/s	1 nm/s	0.132 min⁻¹	33 nM	Dose-dependent effect	143 nM	30 µM (≈ 15.4 µg/mL)	0.2 nM	381 nM	81.3%	0.4 nM	419 nM	0.2	770 µL/min/mg	96.3 µL/min/mg	8.3 µM (≈ 4.27 µg/mL)	inhibition (Homo sapiens [13]): Dose-dependent effect; inhibition [18]: Dose-dependent effect
C=CC(=O)Nc1cc(-c2c[nH]c3ncnc(Nc4ccc5c(cnn5Cc5ccccc5)c4)c23)ccc1OCCO	14 nM	90.9%	–	–	12 nm/s	52 nm/s	0.138 min⁻¹	6 nM	–	67 nM	30 µM (≈ 16.4 µg/mL)	0.1 nM	159 nM	88.4%	0.07 nM	508 nM	4.5	603 µL/min/mg	66 µL/min/mg	16.8 µM (≈ 9.17 µg/mL)	inhibition [22]: Active; inhibition [24]: Active

Source: ChEMBL document CHEMBL4665812, “Targeting Her2-insYVMA with Covalent Inhibitors-A Focused Compound Screening and Structure-Based Design Approach” (J Med Chem, 2020)
